According to patent US12686873B2, “Plants having increased tolerance to herbicides” (priority 2012, dated 2026):
Several values for one entry are separate records, joined by “and”; a condition that tells them apart may be missing. Equal values may be shown once.

Legend:
Soy = experiment: Tolerance rates for soybean (injury score 0-9)
Corn = experiment: Tolerance rates for corn (injury score 0-9)

CCOc1cc(Oc2ccc(C(F)(F)F)cc2Cl)ccc1[N+](=O)[O-] [Oxyfluorfen]
injury score (Soy; Oxyfluorfen 600 g ai/ha, amino acid substitution L397D_F420V Event A, SEQ ID NO 2): 4 and 5 and 6 and 9
injury score (Soy; Oxyfluorfen 600 g ai/ha, amino acid substitution L397D_F420V Event B, SEQ ID NO 2): 6 and 4 and 8 and 5
injury score (Soy; Oxyfluorfen 600 g ai/ha, amino acid substitution none, SEQ ID NO none): 8 and 7 and 9
injury score (Soy; Oxyfluorfen 1200 g ai/ha, amino acid substitution L397D_F420V Event A, SEQ ID NO 2): 5 and 4 and 3
injury score (Soy; Oxyfluorfen 1200 g ai/ha, amino acid substitution L397D_F420V Event B, SEQ ID NO 2): 5 and 4 and 6
injury score (Soy; Oxyfluorfen 1200 g ai/ha, amino acid substitution none, SEQ ID NO none): 9 and 8

C#CCN1C(=O)COc2cc(F)c(N3C(=O)C4=C(CCCC4)C3=O)cc21 [flumioxazin]
injury score (Soy; Flumioxazin 150 g ai/ha, amino acid substitution L397D_F420V Event A, SEQ ID NO 2): 9 and 6 and 5 and 4
injury score (Soy; Flumioxazin 150 g ai/ha, amino acid substitution L397D_F420V Event B, SEQ ID NO 2): 5 and 6 and 4
injury score (Soy; Flumioxazin 150 g ai/ha, amino acid substitution none, SEQ ID NO none): 9

CS(=O)(=O)NC(=O)c1cc(Oc2ccc(C(F)(F)F)cc2Cl)ccc1[N+](=O)[O-] [fomesafen]
injury score (Soy; Fomesafen 600 g ai/ha, amino acid substitution L397D_F420V Event A, SEQ ID NO 2): 1 and 2 and 0 and 4
injury score (Soy; Fomesafen 600 g ai/ha, amino acid substitution L397D_F420V Event B, SEQ ID NO 2): 2 and 4 and 1 and 3
injury score (Soy; Fomesafen 600 g ai/ha, amino acid substitution none, SEQ ID NO none): 5 and 4

CC(C)N(C)S(=O)(=O)NC(=O)c1cc(-n2c(=O)cc(C(F)(F)F)n(C)c2=O)c(F)cc1Cl [saflufenacil]
Tolerance rate (injury score), Saflufenacil 25 g ai/ha (Corn; Corn events with PPO L397D, F420M (SEQ ID NO 2), Saflufenacil 25 g ai/ha): 2 and 3 and 1
Tolerance rate (injury score), Saflufenacil 50 g ai/ha (Corn; Corn events with PPO L397D, F420M (SEQ ID NO 2), Saflufenacil 50 g ai/ha): 1 and 2 and 3 and 0
Tolerance rate (injury score), Saflufenacil 100 g ai/ha (Corn; Corn events with PPO L397D, F420M (SEQ ID NO 2), Saflufenacil 100 g ai/ha): 7 and 3
Tolerance rate (injury score), Saflufenacil 100 g ai/ha (Corn; Corn events with PPO L397E, F420M (SEQ ID NO 2), Saflufenacil 100 g ai/ha): 1 and 0 and 7
Tolerance rate (injury score), Saflufenacil 100 g ai/ha (Corn; Corn events with PPO L397Q (SEQ ID NO 2), Saflufenacil 100 g ai/ha): 4 and 5
Tolerance rate (injury score), Saflufenacil 100 g ai/ha (Corn; Corn events with PPO L397Q, F420M (SEQ ID NO 2), Saflufenacil 100 g ai/ha): 0 and 1
Tolerance rate (injury score), Saflufenacil 100 g ai/ha (Corn; Corn events with PPO L397Q, F420V (SEQ ID NO 2), Saflufenacil 100 g ai/ha): 4 and 2 and 3 and 7 and 5
Tolerance rate (injury score), Saflufenacil 100 g ai/ha (Corn; Corn events, amino acid substitution not given, Saflufenacil 100 g ai/ha): 1
Tolerance rate (injury score), corn (Corn; Saflufenacil 25 g ai/ha, corn events 37-53, amino acid substitution not given): 6 and 7 and 5 and 8 and 4
Tolerance rate (injury score), corn (Corn; Saflufenacil 25 g ai/ha, corn events with PPO substitution F420L (SEQ ID NO 2)): 6 and 7
Tolerance rate (injury score), corn (Corn; Saflufenacil 25 g ai/ha, corn events with PPO substitution F420M (SEQ ID NO 2)): 4 and 6 and 8 and 7 and 5
Tolerance rate (injury score), corn (Corn; Saflufenacil 25 g ai/ha, corn events with PPO substitution L397D, F420V (SEQ ID NO 2)): 6 and 5 and 7
Tolerance rate (injury score), corn (Corn; Saflufenacil 25 g ai/ha, corn events with PPO substitution L397E, F420V (SEQ ID NO 2)): 1 and 0 and 3
Tolerance rate (injury score), corn (Corn; Saflufenacil 50 g ai/ha, corn events 54-81, amino acid substitution not given): 6 and 7 and 4 and 5
Tolerance rate (injury score), corn (Corn; Saflufenacil 50 g ai/ha, corn events with PPO substitution F420L (SEQ ID NO 2)): 7 and 8 and 6
Tolerance rate (injury score), corn (Corn; Saflufenacil 50 g ai/ha, corn events with PPO substitution F420M (SEQ ID NO 2)): 7 and 6 and 8
Tolerance rate (injury score), corn (Corn; Saflufenacil 50 g ai/ha, corn events with PPO substitution L397D, F420V (SEQ ID NO 2)): 4 and 6 and 7
Tolerance rate (injury score), corn (Corn; Saflufenacil 50 g ai/ha, corn events with PPO substitution L397E, F420V (SEQ ID NO 2)): 1 and 0 and 2 and 3
Tolerance rate (injury score), corn (Corn; Saflufenacil 100 g ai/ha, corn events with PPO substitution F420L (SEQ ID NO 2)): 8 and 7 and 6
Tolerance rate (injury score), corn (Corn; Saflufenacil 100 g ai/ha, corn events with PPO substitution L397E, F420V (SEQ ID NO 2)): 0 and 1 and 3 and 2
injury score (Soy; Soy, saflufenacil 12.5 g ai/ha, amino acid substitution F420L, SEQ ID NO 2): 1 and 0 and 3
injury score (Soy; Soy, saflufenacil 12.5 g ai/ha, amino acid substitution L369D, F392V, SEQ ID NO 40): 9 and 7 and 4 and 5 and 6
injury score (Soy; Soy, saflufenacil 12.5 g ai/ha, amino acid substitution L397E, SEQ ID NO 2): 5 and 4 and 0 and 3
injury score (Soy; Soy, saflufenacil 12.5 g ai/ha, amino acid substitution L397Q, SEQ ID NO 2): 4
injury score (Soy; Soy, saflufenacil 12.5 g ai/ha, amino acid substitution none, SEQ ID NO 2): 2 and 4 and 7 and 8 and 5
injury score (Soy; Soy, saflufenacil 12.5 g ai/ha, amino acid substitution none, SEQ ID NO 40): 9 and 3 and 4 and 8 and 7
injury score (Soy; Soy, saflufenacil 25 g ai/ha, amino acid substitution F420L, SEQ ID NO 2): 9 and 0 and 2
injury score (Soy; Soy, saflufenacil 25 g ai/ha, amino acid substitution L369D, F392V, SEQ ID NO 40): 9 and 5 and 6 and 7 and 4
injury score (Soy; Soy, saflufenacil 25 g ai/ha, amino acid substitution L397D, SEQ ID NO 2): 7 and 2 and 9 and 5 and 3
injury score (Soy; Soy, saflufenacil 25 g ai/ha, amino acid substitution L397E, SEQ ID NO 2): 3 and 6 and 4 and 5 and 1
injury score (Soy; Soy, saflufenacil 25 g ai/ha, amino acid substitution L397Q, SEQ ID NO 2): 3
injury score (Soy; Soy, saflufenacil 25 g ai/ha, amino acid substitution none, SEQ ID NO 2): 4 and 3 and 7 and 9 and 8
injury score (Soy; Soy, saflufenacil 25 g ai/ha, amino acid substitution none, SEQ ID NO 40): 9 and 6
injury score (Soy; Soy, saflufenacil 50 g ai/ha, amino acid substitution F420L, SEQ ID NO 2): 9 and 0 and 2
injury score (Soy; Soy, saflufenacil 50 g ai/ha, amino acid substitution L369D, F392V, SEQ ID NO 40): 9 and 6 and 7 and 5
injury score (Soy; Soy, saflufenacil 50 g ai/ha, amino acid substitution L397D, SEQ ID NO 2): 9 and 4 and 3 and 6 and 5
injury score (Soy; Soy, saflufenacil 50 g ai/ha, amino acid substitution L397E, F420M, SEQ ID NO 2): 1 and 0 and 2
injury score (Soy; Soy, saflufenacil 50 g ai/ha, amino acid substitution L397E, SEQ ID NO 2): 3 and 6 and 4 and 7
injury score (Soy; Soy, saflufenacil 50 g ai/ha, amino acid substitution L397Q, F420M, SEQ ID NO 2): 0 and 6 and 1 and 5 and 4
injury score (Soy; Soy, saflufenacil 50 g ai/ha, amino acid substitution L397Q, F420V, SEQ ID NO 2): 0 and 7
injury score (Soy; Soy, saflufenacil 50 g ai/ha, amino acid substitution L397Q, SEQ ID NO 2): 8
injury score (Soy; Soy, saflufenacil 50 g ai/ha, amino acid substitution none, SEQ ID NO 2): 7 and 8 and 9 and 6
injury score (Soy; Soy, saflufenacil 50 g ai/ha, amino acid substitution none, SEQ ID NO 40): 9 and 8
injury score (Soy; Soy, saflufenacil 100 g ai/ha, amino acid substitution F420L, SEQ ID NO 2): 9
injury score (Soy; Soy, saflufenacil 100 g ai/ha, amino acid substitution L369D, F392V, SEQ ID NO 40): 9 and 6
injury score (Soy; Soy, saflufenacil 100 g ai/ha, amino acid substitution L397D, SEQ ID NO 2): 9 and 4 and 6 and 5
injury score (Soy; Soy, saflufenacil 100 g ai/ha, amino acid substitution L397E, F420M, SEQ ID NO 2): 2 and 0 and 1
injury score (Soy; Soy, saflufenacil 100 g ai/ha, amino acid substitution L397Q, F420M, SEQ ID NO 2): 0 and 7 and 3 and 6 and 1 and 2
injury score (Soy; Soy, saflufenacil 100 g ai/ha, amino acid substitution L397Q, F420V, SEQ ID NO 2): 0 and 7

Cc1nn(-c2cc(NS(C)(=O)=O)c(Cl)cc2Cl)c(=O)n1C(F)F [sulfentrazone]
injury score (Soy; Sulfentrazone 350 g ai/ha, amino acid substitution L397D_F420V Event A, SEQ ID NO 2): 9 and 6 and 3 and 5
injury score (Soy; Sulfentrazone 350 g ai/ha, amino acid substitution L397D_F420V Event B, SEQ ID NO 2): 4 and 5 and 6
injury score (Soy; Sulfentrazone 350 g ai/ha, amino acid substitution none, SEQ ID NO none): 9 and 7 and 8
injury score (Soy; Sulfentrazone 700 g ai/ha, amino acid substitution L397D_F420V Event A, SEQ ID NO 2): 2 and 3 and 7 and 1 and 4 and 6
injury score (Soy; Sulfentrazone 700 g ai/ha, amino acid substitution L397D_F420V Event B, SEQ ID NO 2): 4 and 5 and 6
injury score (Soy; Sulfentrazone 700 g ai/ha, amino acid substitution none, SEQ ID NO none): 9
